Data reported in PubChem BioAssay AID248 (DTP/NCI, 2004).
“And” between values parts separate entries of the source, which are not always exact repeats. Identical values can stand only once. Toxic doses and inconclusive results are not listed. Cut-off read from the data, not from the text of the source: active = T/C of 150% or more; inactive = T/C below 125%.

System: L1210 leukemia ip in BDF1 mice, survival T/C
Test: NCI In Vivo Anticancer Drug Screen. Data for tumor model L1210 Leukemia (intraperitoneal) in B6D2F1 (BDF1) mice
Conditions: higher = longer survival
Summary of the method: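 Transplantable tumor model; survival measured in treated vs vehicle control mice. Value = treated/control.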

[1] = endpoint: mean survival time, dose: 100.0 mg/kg/injection, schedule: Q01DX009 (ip), vehicle: saline
[2] = endpoint: mean survival time, dose: 100.0 mg/kg/injection, schedule: Q04DX003 (ip), vehicle: saline
[3] = endpoint: mean survival time, dose: 100.0 mg/kg/injection, schedule: Q01DX001 (ip), vehicle: saline
[4] = endpoint: mean survival time, dose: 100.0 mg/kg/injection, schedule: Q04DX003 (ip), vehicle: Klucel (hydroxypropylcellulose) (HPC)
[5] = endpoint: mean survival time, dose: 200.0 mg/kg/injection, schedule: Q01DX001 (ip), vehicle: saline
[6] = endpoint: mean survival time, dose: 200.0 mg/kg/injection, schedule: Q04DX003 (ip), vehicle: Klucel (hydroxypropylcellulose) (HPC)
[7] = endpoint: mean survival time, dose: 400.0 mg/kg/injection, schedule: Q01DX001 (ip), vehicle: saline
[8] = endpoint: mean survival time, dose: 100.0 mg/kg/injection, schedule: Q04DX003 (ip), vehicle: saline with Tween-80
[9] = endpoint: mean survival time, dose: 200.0 mg/kg/injection, schedule: Q04DX003 (ip), vehicle: saline with Tween-80
[10] = endpoint: mean survival time, dose: 400.0 mg/kg/injection, schedule: Q04DX003 (ip), vehicle: saline with Tween-80
[11] = endpoint: mean survival time, dose: 100.0 mg/kg/injection, schedule: Q01DX009 (ip), vehicle: saline with Tween-80
[12] = endpoint: mean survival time, dose: 200.0 mg/kg/injection, schedule: Q01DX009 (ip), vehicle: saline with Tween-80
[13] = endpoint: mean survival time, dose: 400.0 mg/kg/injection, schedule: Q01DX009 (ip), vehicle: saline with Tween-80

Measured: T/C

CP1(=O)CC2OC23CCCCC31 (configuration not stated)
inactive: endpoint: mean survival time, dose: 12.5 mg/kg/injection, schedule: Q01DX009 (ip), vehicle: saline 98 % of control | endpoint: mean survival time, dose: 25.0 mg/kg/injection, schedule: Q01DX009 (ip), vehicle: saline 98 % of control | endpoint: mean survival time, dose: 50.0 mg/kg/injection, schedule: Q01DX009 (ip), vehicle: saline 102 % of control | endpoint: mean survival time, dose: 100.0 mg/kg/injection, schedule: Q01DX009 (ip), vehicle: other 109 % of control | [1] 89 % of control | endpoint: mean survival time, dose: 200.0 mg/kg/injection, schedule: Q01DX009 (ip), vehicle: other 114 % of control

ClC(c1ccccc1)(c1ccccc1)c1ccccc1
inactive: endpoint: mean survival time, dose: 50.0 mg/kg/injection, schedule: Q01DX001 (ip), vehicle: other 96 % of control | endpoint: mean survival time, dose: 100.0 mg/kg/injection, schedule: Q01DX001 (ip), vehicle: other 102 % of control | [1] 87 % of control | [2] 90 % of control | endpoint: mean survival time, dose: 200.0 mg/kg/injection, schedule: Q01DX001 (ip), vehicle: other 106 % of control | endpoint: mean survival time, dose: 200.0 mg/kg/injection, schedule: Q01DX009 (ip), vehicle: saline 94 % of control | endpoint: mean survival time, dose: 200.0 mg/kg/injection, schedule: Q04DX003 (ip), vehicle: saline 93 % of control | endpoint: mean survival time, dose: 400.0 mg/kg/injection, schedule: Q01DX001 (ip), vehicle: other 100 % of control | endpoint: mean survival time, dose: 400.0 mg/kg/injection, schedule: Q01DX009 (ip), vehicle: saline 90 % of control | endpoint: mean survival time, dose: 400.0 mg/kg/injection, schedule: Q04DX003 (ip), vehicle: saline 88 % of control

O=Cc1c(Cl)c(Cl)c(C=O)c(Cl)c1Cl
inactive: endpoint: mean survival time, dose: 50.0 mg/kg/injection, schedule: Q01DX001 (ip), vehicle: saline 103 % of control | [3] 103 % of control | endpoint: mean survival time, dose: 100.0 mg/kg/injection, schedule: Q01DX009 (ip), vehicle: Klucel (hydroxypropylcellulose) (HPC) 107 % of control | [4] 102 % of control | [5] 100 % of control | endpoint: mean survival time, dose: 200.0 mg/kg/injection, schedule: Q01DX009 (ip), vehicle: Klucel (hydroxypropylcellulose) (HPC) 115 % of control | [6] 101 % of control | [7] 105 % of control | endpoint: mean survival time, dose: 400.0 mg/kg/injection, schedule: Q01DX009 (ip), vehicle: Klucel (hydroxypropylcellulose) (HPC) 103 % of control | endpoint: mean survival time, dose: 400.0 mg/kg/injection, schedule: Q04DX003 (ip), vehicle: Klucel (hydroxypropylcellulose) (HPC) 98 % of control

CCC(=O)Nc1cccc(OC(=O)N(C(C)C)C(C)C)c1
inactive: [8] 93 % of control | [9] 93 % of control | [10] 104 % of control

N=C(N)c1ccc(Nc2ccc(C(=N)N)cc2)cc1
inactive: endpoint: mean survival time, dose: 3.0 mg/kg/injection, schedule: Q01DX010 (ip), vehicle: saline 95 % of control and 91 % of control | endpoint: mean survival time, dose: 6.0 mg/kg/injection, schedule: Q01DX010 (ip), vehicle: saline 95 % of control and 91 % of control | endpoint: mean survival time, dose: 12.0 mg/kg/injection, schedule: Q01DX010 (ip), vehicle: saline 94 % of control and 97 % of control | endpoint: mean survival time, dose: 15.0 mg/kg/injection, schedule: Q02DX010 (ip), vehicle: carboxymethylcellulose (CMC) 99 % of control | endpoint: mean survival time, dose: 24.0 mg/kg/injection, schedule: Q01DX010 (ip), vehicle: saline 89 % of control and 91 % of control | endpoint: mean survival time, dose: 30.0 mg/kg/injection, schedule: Q02DX010 (ip), vehicle: carboxymethylcellulose (CMC) 103 % of control | endpoint: mean survival time, dose: 44.0 mg/kg/injection, schedule: Q02DX010 (ip), vehicle: carboxymethylcellulose (CMC) 89 % of control | endpoint: mean survival time, dose: 47.0 mg/kg/injection, schedule: Q01DX001 (ip), vehicle: water 97 % of control | endpoint: mean survival time, dose: 66.0 mg/kg/injection, schedule: Q02DX010 (ip), vehicle: carboxymethylcellulose (CMC) 77 % of control | endpoint: median survival time, dose: 6.0 mg/kg/injection, schedule: Q01DX009 (ip), vehicle: saline 105 % of control and 112 % of control | endpoint: median survival time, dose: 12.0 mg/kg/injection, schedule: Q01DX009 (ip), vehicle: saline 112 % of control | endpoint: median survival time, dose: 24.0 mg/kg/injection, schedule: Q01DX009 (ip), vehicle: saline 87 % of control

CCCCCC(C)(O)CC (configuration not stated)
inactive: [3] 93 % of control | [5] 102 % of control | [7] 96 % of control

CCN(CC)CCOc1cc(C)cc2ccccc12
inactive: endpoint: mean survival time, dose: 12.5 mg/kg/injection, schedule: Q04DX003 (ip), vehicle: saline 87 % of control | endpoint: mean survival time, dose: 25.0 mg/kg/injection, schedule: Q04DX003 (ip), vehicle: saline 98 % of control | endpoint: mean survival time, dose: 50.0 mg/kg/injection, schedule: Q04DX003 (ip), vehicle: saline 101 % of control | [2] 104 % of control

O=C(N/N=C/c1ccccc1O)N/N=C/c1ccccc1O
inactive: endpoint: mean survival time, dose: 50.0 mg/kg/injection, schedule: Q04DX003 (ip), vehicle: Klucel (hydroxypropylcellulose) (HPC) 96 % of control | [4] 90 % of control | [6] 88 % of control

CC(=O)[C@H]1CC[C@H]2[C@@H]3C[C@H](F)C4=CC(=O)CC[C@]4(C)[C@@]3(F)[C@@H](O)C[C@]12C
inactive: endpoint: mean survival time, dose: 50.0 mg/kg/injection, schedule: Q01DX009 (sc), vehicle: steriod suspending solution 124 % of control | endpoint: mean survival time, dose: 100.0 mg/kg/injection, schedule: Q01DX009 (sc), vehicle: steriod suspending solution 101 % of control | endpoint: mean survival time, dose: 100.0 mg/kg/injection, schedule: Q04DX003 (sc), vehicle: steriod suspending solution 97 % of control | endpoint: mean survival time, dose: 200.0 mg/kg/injection, schedule: Q01DX009 (sc), vehicle: steriod suspending solution 104 % of control | endpoint: mean survival time, dose: 200.0 mg/kg/injection, schedule: Q04DX003 (sc), vehicle: steriod suspending solution 105 % of control | endpoint: mean survival time, dose: 400.0 mg/kg/injection, schedule: Q04DX003 (sc), vehicle: steriod suspending solution 103 % of control

c1ccc2cc3c(cc2c1)Nc1cc2ccccc2cc1N3
inactive: [11] 93 % of control | [8] 97 % of control | [12] 93 % of control | [9] 101 % of control | [13] 88 % of control | [10] 103 % of control

CC1CCC(C(C)C)C(NCCO)C1 (configuration not stated)
inactive: endpoint: mean survival time, dose: 18.8 mg/kg/injection, schedule: Q04DX003 (ip), vehicle: saline 102 % of control | endpoint: mean survival time, dose: 37.5 mg/kg/injection, schedule: Q04DX003 (ip), vehicle: saline 100 % of control | endpoint: mean survival time, dose: 75.0 mg/kg/injection, schedule: Q01DX001 (ip), vehicle: saline 103 % of control | endpoint: mean survival time, dose: 75.0 mg/kg/injection, schedule: Q04DX003 (ip), vehicle: saline 100 % of control

CN(C)c1ccc(/C=C/C=N/N=C/c2ccccc2O)cc1
inactive: endpoint: mean survival time, dose: 75.0 mg/kg/injection, schedule: Q01DX001 (ip), vehicle: other 89 % of control | endpoint: mean survival time, dose: 150.0 mg/kg/injection, schedule: Q01DX001 (ip), vehicle: other 94 % of control

CCCCCCCCCCCCCCCCCCNC(=O)Nc1ccc([N+](=O)[O-])cc1Br
inactive: endpoint: mean survival time, dose: 100.0 mg/kg/injection, schedule: Q04DX002 (ip), vehicle: Klucel (hydroxypropylcellulose) (HPC) 97 % of control | endpoint: mean survival time, dose: 200.0 mg/kg/injection, schedule: Q04DX002 (ip), vehicle: Klucel (hydroxypropylcellulose) (HPC) 97 % of control | endpoint: mean survival time, dose: 400.0 mg/kg/injection, schedule: Q04DX002 (ip), vehicle: Klucel (hydroxypropylcellulose) (HPC) 90 % of control

CC(=O)OCOC(COC(C)=O)C1OCOC(COC(C)=O)C1OCOC(C)=O (configuration not stated)
inactive: endpoint: mean survival time, dose: 100.0 mg/kg/injection, schedule: Q04DX002 (ip), vehicle: saline with Tween-80 100 % of control | endpoint: mean survival time, dose: 200.0 mg/kg/injection, schedule: Q04DX002 (ip), vehicle: saline with Tween-80 100 % of control | endpoint: mean survival time, dose: 400.0 mg/kg/injection, schedule: Q04DX002 (ip), vehicle: saline with Tween-80 100 % of control

O=S1(=O)c2ccccc2C(=NO)c2ccccc21
inactive: endpoint: mean survival time, dose: 75.0 mg/kg/injection, schedule: Q01DX009 (ip), vehicle: other 98 % of control | [3] 97 % of control | endpoint: mean survival time, dose: 150.0 mg/kg/injection, schedule: Q01DX009 (ip), vehicle: other 98 % of control | [5] 94 % of control | endpoint: mean survival time, dose: 300.0 mg/kg/injection, schedule: Q01DX009 (ip), vehicle: other 93 % of control | [7] 97 % of control

CCOP(=O)(OCC)C(=Cc1ccccc1)P(=O)(OCC)OCC
inactive: endpoint: mean survival time, dose: 100.0 mg/kg/injection, schedule: Q01DX001 (ip), vehicle: saline with Tween-80 106 % of control | [11] 107 % of control | endpoint: mean survival time, dose: 200.0 mg/kg/injection, schedule: Q01DX001 (ip), vehicle: saline with Tween-80 103 % of control | [12] 105 % of control | endpoint: mean survival time, dose: 400.0 mg/kg/injection, schedule: Q01DX001 (ip), vehicle: saline with Tween-80 103 % of control | [13] 107 % of control
